{
  "source": "patent US6407099B1",
  "about": "“Arylpiperidinopropanol and arylpiperazinopropanol derivatives and pharmaceuticals containing the same” (Suntory Limited, priority 1997, dated 2002)",
  "key": {"[1]": {"system": "Sodium channel", "assay": "Inhibitory effect of veratrizine-induced sodium channel activity (synaptozome membrane potential, Rhodamine 6G)", "format": "biochemical, Wistar rats", "details": "compound 0.1 μM; rat brain synaptozomes, veratrizine-induced depolarization", "excerpt": "Inhibitory Effect of Veratrizine-induced Sodium Channel Activity"}, "[2]": {"system": "T-type Ca^2+ channel", "assay": "T-type calcium channel inhibitory effect (whole-cell patch clamp, hippocampal CA1 pyramidal cells)", "format": "cell-based, Wistar rats", "details": "rat hippocampal CA1 pyramidal cells; peak current after 1 minute of application", "experimental": "T-Type Calcium Channel Inhibitory Effect\nThe hippocampal CA1 pyramidal cells were isolated from Wistar rats (female, 1 week old) in according to the method reported by Takahashi et al. [K. Takahashi et al.; J. Pharmacol. Exp. Ther., 256, 169 (1991)] and the T-type calcium current was measured under conditions of a fixed membrane potential using the whole-cell configuration of the patch clamp technique. The effects of the compounds were evaluated from the rate of suppression of the peak current after 1 minute of application using the concentration clamp method."}, "[3]": {"system": "lipid peroxidation", "assay": "Lipid peroxidation suppressing effect (brain membrane preparation, malonaldehyde and 4-hydroxyalkenals)", "format": "biochemical, Wistar rats", "details": "rat brain membrane preparation, 37° C., 30 minutes", "experimental": "Lipid Peroxidation Suppressing Effect\nThe whole brains of Wistar rats (10 weeks old, male) were excised and homogenized in the 10 times volumes of 50 mM phosphate-buffered solution (pH=7.4) (hereinafter referred to as PBS). The centrifuged supernatent was further diluted fourfold and the result was used as the brain membrane preparation. The membrane preparation was incubated in the presence of vehicle (0.5% DMSO) or compound at 37° C. for 30 minutes and an automatic oxidation reaction promoted. The reaction was stopped by 35% perchloric acid, then the total of the main decomposition products of the peroxidized lipids present in the centrifuged supernatent, that is, malonaldehyde and 4-hydroxyalkenals, was measured using a BIOXYTECH®/LPO-586™ peroxidized lipid colorimetric assay kit (OXIS International, Inc.) and used as an indicator of the lipid peroxidation."}, "[4]": {"molecular_target": "T1, Dopamine D2 receptor (Rattus norvegicus, UniProt P61169)", "T1 construct": "membrane fraction prepared from the striatum of Wistar male rats; from tissue; host or cells: rat striatum membrane fraction", "T1 sequence (P61169 whole entry)": "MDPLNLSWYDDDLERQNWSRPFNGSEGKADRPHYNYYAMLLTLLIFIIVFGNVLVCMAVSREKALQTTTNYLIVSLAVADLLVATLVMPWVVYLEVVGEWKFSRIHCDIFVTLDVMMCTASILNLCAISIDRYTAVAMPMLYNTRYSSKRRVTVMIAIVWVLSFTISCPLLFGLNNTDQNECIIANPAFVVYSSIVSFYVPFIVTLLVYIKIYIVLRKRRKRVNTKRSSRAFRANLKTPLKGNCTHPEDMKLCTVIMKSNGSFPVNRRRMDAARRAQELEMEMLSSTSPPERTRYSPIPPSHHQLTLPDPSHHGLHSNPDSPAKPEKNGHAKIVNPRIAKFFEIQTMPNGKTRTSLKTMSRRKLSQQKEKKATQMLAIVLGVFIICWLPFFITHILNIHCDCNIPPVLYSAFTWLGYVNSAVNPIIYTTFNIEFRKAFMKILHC", "assay": "Dopamine D2 receptor blocking action ([^3H] raclopride, striatum membrane fraction)", "format": "binding, Wistar male rats", "details": "1.0 nM [^3H] raclopride, 25° C., 1 hour", "experimental": "Dopamine D2 Receptor Blocking Action\n57 μl of the membrane fraction prepared from the striatum of Wistar male rats (6 weeks old) was incubated together with the compound and 1.0 nM [^3H] raclopride in a buffer at 25° C. for 1 hour. A GF/C glass filter (0.1% polyethylene imine treatment) was used for B/F separation. A beta plate was used for measurement of the radioactivity to evaluate the effect of the compound."}, "[5]": {"system": "DBA/2N type mice", "assay": "Audiogenic seizure suppressing effect", "format": "in vivo", "details": "Mus musculus, ip, 20 min, compound 10 mg/kg, i.p.; audio stimulus after 20 minutes; seizure score; read-out: Antiseizure effect (suppression rate %)", "experimental": "Audiogenic Seizure Suppressing Effect\nThe audiogenic seizure suppressing effect of the compounds was evaluated by the method of Sarro et al. [G. B. De Sarro et al., Br. J. Pharmacol., 93, 247 (1988)]. That is, the compound dissolved in 10% 2-hydroxypropyl-β-cyclodextrin was administered intraperitoneally to DBA/2N type mice (male, 3 weeks old). After 20 minutes, a supersonic washer was used to apply audio stimulus of at least 90 dB for 1 minute. The wild running (WR), clonic seizures (clonus), tonic seizures (tonus), and the respiratory arrest (RA) were observed. The seizure suppressing effect was evaluated from the rate of suppression of the average value of the seizure score found as 0=no response, 1=WR, 2=clonus, 3=tonus, and 4=RA."}, "[6]": {"assay": "Acute toxicity test", "details": "male, mouse, in vivo, iv, ddY mice, death rate up to 24 hours after administration", "experimental": "A pharmaceutical preparation was administered intravenously to ddY mice (male, 6 weeks old). The 50% lethal dosage LD50 of the acute toxicity was calculated by an ordinary method from the death rate up to 24 hours after administration."}},
  "data": [
    {"smiles": "COc1ccc(N)cc1OC[C@@H](O)CN1CCC(c2ccc(Oc3ccccc3)cc2)CC1", "note": "[Compound 41, (2S)-1-[(5-amino-2-methoxy)phenoxy]-3-[4-(4-phenoxyphenyl)piperidin-1-yl]-2-propanol]", "values": [
      {"measurement": "Anti-veratrizine effect (inhibiting rate %)", "setting": "[1]", "value": 22.1, "unit": "%"},
      {"measurement": "IC50", "setting": "[2]", "value": 4, "unit": "µM"},
      {"measurement": "IC50", "setting": "[3]", "value": 0.87, "unit": "µM"},
      {"measurement": "IC50", "setting": "[4]", "value": 11, "unit": "µM"},
      {"measurement": "inhibition in vivo at 10 mg/kg", "setting": "[5]", "value": 60, "unit": "%"},
      {"measurement": "LD50 at 24 h", "setting": "[6]", "value": 36.7, "unit": "mg/kg"}
    ]}
  ]
}
